Laboratory results: US10106524B2, “2,3,4,5-tetrahydropyridin-6-amine and 3,4-dihydro-2H-pyrrol-5-amine compound inhibitors of beta-secretase” (Janssen Pharmaceutica NV, priority 2015, dated 2018)

Experiments:
[1] = biological target: T1, recombinant BACE1 protein (Homo sapiens, UniProt P56817); assay: BACE1 biochemical FRET based assay - Method 2; conditions: BACE1 0.04 μg/ml, 450 minutes, 20 μM substrate, pH 5.0; read-out: Biochemical FRET based assay- Method 2 pIC50 (converted)
T1 construct: recombinant BACE1 protein in a final concentration of 1 μg/ml
From the text: (§1) BACE1 Biochemical FRET Based Assay
(§2) This assay is a Fluorescence Resonance Energy Transfer Assay (FRET) based assay. The substrate for this assay is an APP derived 13 amino acids peptide that contains the ‘Swedish’ Lys-Met/Asn-Leu mutation of the amyloid precursor protein (APP) beta-secretase cleavage site. This substrate also contains two fluorophores: (7-methoxycoumarin-4-yl) acetic acid (Mca) is a fluorescent donor with excitation wavelength at 320 nm and emission at 405 nm and 2,4-Dinitrophenyl (Dnp) is a proprietary quencher acceptor. […] Upon cleavage by BACE1, the fluorophore Mca is separated from the quenching group Dnp, restoring the full fluorescence yield of the donor. The increase in fluorescence is linearly related to the rate of proteolysis.
Briefly in a 384-well format recombinant BACE1 protein in a final concentration of 0.04 μg/ml is incubated for 450 minutes at room temperature with 20 μM substrate in incubation buffer (50 mM Citrate buffer pH 5.0, 0.05% PEG) in the presence of compound or DMSO. Next the amount of proteolysis is directly measured by fluorescence measurement (excitation at 320 nm and emission at 405 nm) at different incubation times (0, 30, 60, 90, 120 and 450 min). For every experiment a time curve (every 30 min between 0 min and 120 min) is used to determine the time where we find the lowest basal signal of the high control. The signal at this time (Tx) is used to subtract from the signal at 450 min. Results are expressed in RFU, as difference between T450 and Tx.
(§3) A best-fit curve is fitted by a minimum sum of squares method to the plot of % Controlmin versus compound concentration. From this an IC50 value (inhibitory concentration causing 50% inhibition of activity) can be obtained.

[2] = test system: Abeta 1-42 produced and secreted by SKNBE2 cells expressing hAPP695; assay: Cellular αLisa assay in SKNBE2 cells - Abeta 42; assay type: cell-based, human; conditions: Homo sapiens, incubated for 18 hours, read-out: Cellular αLisa assay in SKNBE2 cells Abeta 42 pIC50 (converted)
Description: (§4) Cellular αLisa Assay in SKNBE2 Cells
(§5) In two αLisa assays the levels of Abeta total and Abeta 1-42 produced and secreted into the medium of human neuroblastoma SKNBE2 cells are quantified. The assay is based on the human neuroblastoma SKNBE2 expressing the wild type Amyloid Precursor Protein (hAPP695). The compounds are diluted and added to these cells, incubated for 18 hours and then measurements of Abeta 1-42 and Abeta total are taken. Abeta total and Abeta 1-42 are measured by sandwich αLisa. αLisa is a sandwich assay using biotinylated antibody AbN/25 attached to streptavidin coated beads and antibody Ab4G8 or cAb42/26 conjugated acceptor beads for the detection of Abeta total and Abeta 1-42 respectively. In the presence of Abeta total or Abeta 1-42, the beads come into close proximity. The excitation of the donor beads provokes the release of singlet oxygen molecules that trigger a cascade of energy transfer in the acceptor beads, resulting in light emission. Light emission is measured after 1 hour incubation (excitation at […] and emission at 615 nm).
as §3

[3] = test system: Abeta total produced and secreted by SKNBE2 cells expressing hAPP695; assay: Cellular αLisa assay in SKNBE2 cells - Abeta total; assay type: cell-based; conditions: Homo sapiens, incubated for 18 hours, read-out: Cellular αLisa assay in SKNBE2 cells Abeta total pIC50 (converted)
Description: as §4, §5, §3

[4] = biological target: T2, recombinant BACE2 protein (Homo sapiens, UniProt Q9Y5Z0); assay: BACE2 biochemical FRET based assay; conditions: BACE2 0.4 μg/nil, 450 minutes, 10 μM substrate, pH 5.0; read-out: Biochemical FRET based assay pIC50 (BACE2) (converted)
T2 construct: recombinant BACE2 protein in a final concentration of 0.4 μg/nil
T2 sequence (Q9Y5Z0 63-518): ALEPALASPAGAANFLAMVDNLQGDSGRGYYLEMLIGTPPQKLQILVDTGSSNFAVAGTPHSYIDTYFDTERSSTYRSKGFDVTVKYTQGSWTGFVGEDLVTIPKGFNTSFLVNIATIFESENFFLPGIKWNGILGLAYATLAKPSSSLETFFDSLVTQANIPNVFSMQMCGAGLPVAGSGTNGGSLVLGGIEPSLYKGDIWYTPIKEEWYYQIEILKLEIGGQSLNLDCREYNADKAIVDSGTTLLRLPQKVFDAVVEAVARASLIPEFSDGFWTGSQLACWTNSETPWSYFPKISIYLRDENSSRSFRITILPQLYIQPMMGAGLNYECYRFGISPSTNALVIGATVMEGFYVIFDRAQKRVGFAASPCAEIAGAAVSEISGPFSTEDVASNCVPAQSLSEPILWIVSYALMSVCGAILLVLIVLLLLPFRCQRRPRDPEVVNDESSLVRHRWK
From the text: BACE2 Biochemical FRET Based Assay
as §2, with “assay” for “assay is an APP derived 13 amino acids peptide that”, “the beta-secretase,” for “BACE1,”
Briefly in a 384-well format recombinant BACE2 protein in a final concentration of […] is incubated for 450 minutes at room temperature with 10 μM substrate in incubation buffer (50 mM Citrate buffer pH 5.0, 0.05% PEG, no DMSO) in the absence or presence of compound. Next the amount of proteolysis is directly measured by fluorescence measurement at T=0 and T=450 (excitation at 320 nm and emission at 405 nm). Results are expressed in RFU (Relative Fluorescence Units), as difference between T450 and T0.
as §3

[5] = biological target: T1, recombinant BACE1 protein; assay: BACE1 biochemical FRET based assay - Method 1; conditions: BACE1 1 μg/ml, 120 minutes, 10 μm substrate, pH 5.0; read-out: Biochemical FRET based assay - Method 1 pIC50 (converted)
From the text: as §1, §2
Briefly in a 384-well format recombinant BACE1 protein in a final concentration of 1 μg/ml is incubated for 120 minutes at room temperature with 10 μm substrate in incubation buffer (40 mM Citrate buffer pH 5.0, 0.04% PEG, 4% DMSO) in the absence or presence of compound. Next the amount of proteolysis is directly measured by fluorescence measurement at T=0 and T=120 (excitation at 320 nm and emission at 405 nm). Results are expressed in RFU (Relative Fluorescence Units), as difference between T120 and T0.
as §3

T1 sequence (P56817 46-501): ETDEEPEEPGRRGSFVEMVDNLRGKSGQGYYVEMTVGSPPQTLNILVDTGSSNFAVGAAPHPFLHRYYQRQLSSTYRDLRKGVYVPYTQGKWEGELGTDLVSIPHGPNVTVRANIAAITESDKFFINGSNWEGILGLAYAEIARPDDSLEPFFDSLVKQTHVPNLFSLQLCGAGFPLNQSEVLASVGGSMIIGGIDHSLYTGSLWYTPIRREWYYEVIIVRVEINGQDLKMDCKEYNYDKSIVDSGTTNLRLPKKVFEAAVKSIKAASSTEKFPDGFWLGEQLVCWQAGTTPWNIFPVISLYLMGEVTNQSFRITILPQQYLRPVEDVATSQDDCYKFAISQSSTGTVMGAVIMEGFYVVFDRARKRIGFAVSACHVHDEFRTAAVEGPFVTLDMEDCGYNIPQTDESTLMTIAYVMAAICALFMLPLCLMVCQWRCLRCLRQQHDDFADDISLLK

Row | Compound | IC50 [1] [nM] | IC50 [2] [nM] | IC50 [3] [nM] | IC50 [4] [nM] | melting point [°C] | IC50 [5] [nM]
1 | CC1(c2cc(NC(=O)c3ccc(Cl)cn3)ccc2F)N=C(N)CC1C(F)(F)F (racemic) [Compound 15, (±)-N-(3-((2S*,3R*)-5-amino-2-methyl-3-(trifluoromethyl)-3,4-dihydro-2H-pyrrol-2-yl)-4-fluorophenyl)-5-chloropicolinamide] | 490 | 100 | 129 | 912 | 240.62 | –
2 | Cc1nc(C(=O)Nc2ccc(F)c(C3(C)N=C(N)CC3C(F)(F)F)c2)co1 (racemic) [Compound 16, (±)-N-[3-1[(2S*,3R*)-5-amino-2-methyl-3-(trifluoromethyl)-3,4-dihydropyrrol-2-yl]-4-fluoro-phenyl]-2-methyl-oxazole-4-carboxamide] | 1150 | 251 | 240 | 537 | 207.05 | –
3 | COc1cccnc1Nc1ccc(F)c(C2(C)N=C(N)CC2C(F)(F)F)c1 (racemic) [Compound 21, (+)-N-[3-[(2S*,3R*)-5-amino-2-methyl-3-(trifluoromethyl)-3,4-dihydropyrrol-2-yl]-4-fluoro-phenyl]-3-methoxy-pyridin-2-amine] | 2400 | 389 | – | 933 | 184.2 | –
4 | CC1(c2cc(NC(=O)c3ccc(Br)cn3)ccc2F)N=C(N)CC1C(F)(F)F (racemic) [Compound 40, (±)-N-[3-[(2S*,3R*)-5-amino-2-methyl-3-(trifluoromethyl)-3,4-dihydropyrrol-2-yl]-4-fluoro-phenyl]-5-bromo-pyridine-2-carboxamide] | 324 | – | – | – | 243.4 | –
5 | COCCOc1cnc(C(=O)Nc2ccc(F)c([C@@]3(C)N=C(N)C[C@H]3C(F)(F)F)c2)cn1 (relative stereo) [Compound 23, (±)-N-[3-[(2S*,3R*)-5-amino-2-methyl-3-(trifluoromethyl)-3,4-dihydropyrrol-2-yl]-4-fluoro-phenyl]-5-(2-methoxyethoxy)pyrazine-2-carboxamide] | 776 | 347 | – | > 10000 | 165.48 | –
6 | COc1cnc(C(=O)Nc2cccc([C@]3(C)C[C@@H](C(F)(F)F)CC(N)=N3)c2)cn1 [Compound 3, N-{3-[(2S,4R)-6-amino-2-methyl-4-(trifluoromethyl)-2,3,4,5-tetrahydropyridin-2-yl]phenyl}-5-methoxypyrazine-2-carboxamide] | 25.1 | 9.55 | 8.71 | 339 | 171.93 | 31.6
7 | COc1cnc(C(=O)Nc2cccc([C@]3(C)C[C@H](C(F)(F)F)CC(N)=N3)c2)cn1 [Compound 4, N-{3-[(2S,4S)-6-amino-2-methyl-4-(trifluoromethyl)-2,3,4,5-tetrahydropyridin-2-yl]phenyl}-5-methoxypyrazine-2-carboxamide] | > 10000 | 2340 | 1950 | > 10000 | 138.66 | > 30200
8 | C[C@@]1(c2cc(NC(=O)c3ccc(C#N)cn3)ccc2F)C[C@@H](C(F)(F)F)CC(N)=N1 [Compound 10] | 3.63 | 4.27 | 3.8 | 25.7 | 205.8 | 36.3
9 | C[C@@]1(c2cc(NC(=O)c3ccc(F)cn3)ccc2F)C[C@@H](C(F)(F)F)CC(N)=N1 [Compound 12] | 15.5 | 7.59 | 7.76 | 10.7 | 199.22 | 51.3
10 | C[C@@]1(c2cc(NC(=O)c3ccn(C(F)F)n3)ccc2F)C[C@@H](C(F)(F)F)CC(N)=N1 [Compound 13] | 6.17 | 22.4 | 24 | 3.09 | 139.83 | 38.9
